The record followed here is patent publication US10034477B2, “Pyrido-1,3-oxazine-2,4-dione compounds with fungicidal activity” (Dow AgroSciences LLC, priority 2016, dated 2018).

For orientation: melting point means the temperature, or range, at which the solid turns liquid.

The structures appear in SMILES notation. Where two headings read alike, the source gives them in different places.

One data set deals with Puccinia triticina. The experiment in a line: Fungicidal activity: wheat brown rust (PUCCRT), disease control on wheat seedlings. The data set is classed as in vivo. Particulars: LV activity at 121.5 g/H, wheat (variety Yuma). The method, then: (§1) Technical grades of materials were dissolved in acetone, which were then mixed with nine volumes of water (H2O) containing 110 ppm Triton X-100. The fungicide solutions were applied onto wheat seedlings using an automated booth sprayer to run-off. All sprayed plants were allowed to air dry prior to further handling. All fungicides were evaluated using the aforementioned method for their activity vs. all target diseases, unless stated otherwise. Wheat leaf blotch and brown rust activity were also evaluated using track spray applications, in which case the fungicides were formulated as EC formulations, containing 0.1% Trycol 5941 in the spray solutions. Wheat plants (variety Yuma) were grown from seed in a greenhouse in 50% mineral soil/50% soil-less Metro mix until the first leaf was fully emerged, with 7-10 seedlings per pot. These plants were inoculated with an aqueous spore suspension of Zymoseptoria tritici either prior to or after fungicide treatments. After inoculation the plants were kept in 100% relative humidity (one day in a dark dew chamber followed by two to three days in a lighted dew chamber at 20° C.) to permit spores to germinate and infect the leaf. The plants were then transferred to a greenhouse set at 20° C. for disease to develop. When disease symptoms were fully expressed on the 1st leaves of untreated plants, infection levels were assessed on a scale of 0 to 100 percent disease severity. Percent disease control was calculated using the ratio of disease severity on treated plants relative to untreated plants. Wheat plants (variety Yuma) were grown from seed in a greenhouse in 50% mineral soil/50% soil-less Metro mix until the first leaf was fully emerged, with 7-10 seedlings per pot. These plants were inoculated with an aqueous spore suspension of Puccinia triticina either prior to or after fungicide treatments. After inoculation the plants were kept in a dark dew room at 22° C. with 100% relative humidity overnight to permit spores to germinate and infect the leaf. The plants were then transferred to a greenhouse set at 24° C. for disease to develop. Fungicide formulation, application and disease assessment followed the procedures as described in the Example A. Results of the evaluations are shown below in Table 4.

The subject of the next data set is Zymoseptoria tritici. The experiment in a line: Fungicidal activity: leaf blotch of wheat (SEPTTR), disease control on wheat seedlings. The data set is classed as in vivo. Particulars: LV activity at 121.5 g/H, wheat (variety Yuma). The protocol: as §1, with “plants.” for “plants. Wheat plants (variety Yuma) were grown from seed in a greenhouse in 50% mineral soil/50% soil-less Metro mix until the first leaf was fully emerged, with 7-10 seedlings per pot. These plants were inoculated with an aqueous spore suspension of Puccinia triticina either prior to or after fungicide treatments. After inoculation the plants were kept in a dark dew room at 22° C. with 100% relative humidity overnight to permit spores to germinate and infect the leaf. The plants were then transferred to a greenhouse set at 24° C. for disease to develop. Fungicide formulation, application and disease assessment followed the procedures as described in the Example A. Results of the evaluations are shown below in Table 4.”

The next data set relates to Phakopsora pachyrhizi. Put plainly: Fungicidal activity: Asian soybean rust (PHAKPA), disease control on soybean seedlings. Particulars: soybean (variety Williams 82). The data set is classed as in vivo. The method, then: Technical grades of materials were dissolved in acetone, which were then mixed with nine volumes of H2O containing 0.011% Tween 20. The fungicide solutions were applied onto soybean seedlings using an automated booth sprayer to run-off. All sprayed plants were allowed to air dry prior to further handling. Soybean plants (variety Williams 82) were grown in soil-less Metro mix, with one plant per pot. Two week old seedlings were used for testing. Plants were inoculated either 3 days prior to or 1 day after fungicide treatments. Plants were incubated for 24 h in a dark dew room at 22° C. and 100% relative humidity then transferred to a growth room at 23° C. for disease to develop. Disease severity was assessed on the sprayed leaves.

Setting [1] is: 24 h, 1 Day Protectant, read-out: PUCCRT 1DP disease control rating.
Where [2] appears, read: 72 h, 3 Day Curative, read-out: PUCCRT 3DC disease control rating.
Where [3] appears, read: 24 h, 1 Day Protectant, read-out: SEPTTR 1DP disease control rating.
The mark [4] stands for this setting: 72 h, 3 Day Curative, read-out: SEPTTR 3DC disease control rating.
Where [5] appears, read: 24 h, 1 Day Protectant, read-out: PHAKPA 1DP disease control rating.
Setting [6] is: 72 h, 3 Day Curative, read-out: PHAKPA 3DC disease control rating.

`COc1ccnc2c(=O)n([C@@H](C)C(=O)O[C@@H](C)C(c3ccc(F)cc3)c3ccc(F)cc3)c(=O)oc12` [Compound 1] came in with a melting point of 68 to 84 °C. The pest or weed control at 121.5 g/ha with Puccinia triticina (setting [1]) was more than 80%. For the same compound, the pest or weed control at 121.5 g/ha with Puccinia triticina (setting [2]) was not above 80%. The pest or weed control at 121.5 g/ha in the data set with Zymoseptoria tritici (setting [3]) was more than 80%. Further, the pest or weed control at 121.5 g/ha in the data set on Zymoseptoria tritici (setting [4]) is more than 80%. In the data set on Phakopsora pachyrhizi (setting [5]), the pest or weed control at 25 ppm was not above 80%.
Take `COc1ccc(O[C@@H](C)[C@H](OC(=O)[C@H](C)n2c(=O)oc3c(OC)ccnc3c2=O)C(C)C)cc1` [Compound 23]: the pest or weed control at 121.5 g/ha with Puccinia triticina (setting [1]) is more than 80%; with Puccinia triticina (setting [2]), more than 80%; with Zymoseptoria tritici (setting [3]) it was not above 80%; in the data set on Zymoseptoria tritici (setting [4]), more than 80%. In addition, the pest or weed control at 25 ppm is more than 80% with Phakopsora pachyrhizi (setting [5]) and not above 80% with Phakopsora pachyrhizi (setting [6]).
Turning to `COc1ccnc2c(=O)n([C@@H](C)C(=O)O[C@@H](C)[C@H](Oc3cccc(F)c3)C(C)C)c(=O)oc12` [Compound 24], the pest or weed control at 121.5 g/ha with Puccinia triticina (setting [1]) is more than 80%; in the data set with Puccinia triticina (setting [2]) it was more than 80%; in the data set on Zymoseptoria tritici (setting [3]), not above 80%; in the data set on Zymoseptoria tritici (setting [4]), more than 80%. For the same compound, the pest or weed control at 25 ppm in the data set with Phakopsora pachyrhizi (setting [5]) was more than 80%; in the data set on Phakopsora pachyrhizi (setting [6]), not above 80%.
`COc1ccnc2c(=O)n([C@@H](C)C(=O)O[C@@H](C)[C@H](c3ccc(C)cc3)c3ccc(C)cc3F)c(=O)oc12` [Compound 25]: the pest or weed control at 121.5 g/ha is more than 80% with Puccinia triticina (setting [1]), not above 80% in the data set with Puccinia triticina (setting [2]), more than 80% in the data set with Zymoseptoria tritici (setting [3]) and more than 80% in the data set with Zymoseptoria tritici (setting [4]). Also, in the data set with Phakopsora pachyrhizi (setting [5]), the pest or weed control at 25 ppm is not above 80%.
On to `COc1cc(Cl)ccc1C(c1ccc(Cl)cc1OC)[C@H](C)OC(=O)[C@H](C)n1c(=O)oc2c(OC)ccnc2c1=O` [Compound 26], for which the pest or weed control at 121.5 g/ha in the data set on Puccinia triticina (setting [1]), in the data set on Zymoseptoria tritici (setting [3]) and in the data set with Zymoseptoria tritici (setting [4]) was more than 80% in each case. For the same compound, in the data set on Phakopsora pachyrhizi (setting [5]), the pest or weed control at 25 ppm was not above 80%.
With `COc1ccnc2c(=O)n([C@@H](C)C(=O)O[C@@H](C)C(c3ccc(Cl)cc3)c3ccc(Cl)cc3)c(=O)oc12` [Compound 27], the pest or weed control at 121.5 g/ha with Puccinia triticina (setting [1]) is not above 80%; in the data set on Zymoseptoria tritici (setting [3]), more than 80%; in the data set with Zymoseptoria tritici (setting [4]), more than 80%. The pest or weed control at 25 ppm in the data set on Phakopsora pachyrhizi (setting [5]) and in the data set on Phakopsora pachyrhizi (setting [6]) was not above 80% each time.
Consider `COc1ccnc2c(=O)n([C@@H](C)C(=O)O[C@@H](C)[C@@H](c3ccccc3)c3ccc(C(F)(F)F)cc3)c(=O)oc12` [Compound 28], for which the pest or weed control at 121.5 g/ha in the data set with Puccinia triticina (setting [1]) was not above 80%; in the data set on Puccinia triticina (setting [2]) it was not above 80%; with Zymoseptoria tritici (setting [3]) it was more than 80%; in the data set with Zymoseptoria tritici (setting [4]) it was more than 80%. In the data set with Phakopsora pachyrhizi (setting [6]), the pest or weed control at 25 ppm was not above 80%.
On to `COc1ccnc2c(=O)n([C@@H](C)C(=O)O[C@H](C(C)C)[C@H](C)Oc3ccc(C)cc3)c(=O)oc12` [Compound 30], for which the pest or weed control at 121.5 g/ha in the data set on Puccinia triticina (setting [1]) is more than 80%; in the data set with Puccinia triticina (setting [2]), not above 80%; in the data set with Zymoseptoria tritici (setting [3]), not above 80%; with Zymoseptoria tritici (setting [4]), not above 80%. Further, the pest or weed control at 25 ppm in the data set with Phakopsora pachyrhizi (setting [5]) is not above 80%.
In the case of `CCC[C@@H](Oc1ccc(C)cc1)[C@H](C)OC(=O)[C@H](C)n1c(=O)oc2c(OC)ccnc2c1=O` [Compound 31], the pest or weed control at 121.5 g/ha in the data set on Puccinia triticina (setting [1]) is more than 80%; in the data set with Puccinia triticina (setting [2]) it was not above 80%; with Zymoseptoria tritici (setting [4]), not above 80%. For the same compound, the pest or weed control at 25 ppm in the data set with Phakopsora pachyrhizi (setting [5]) and in the data set on Phakopsora pachyrhizi (setting [6]) was not above 80% each time.
With `COc1ccnc2c(=O)n([C@@H](C)C(=O)O[C@@H](C)C(c3ccc(C)cc3)c3ccc(C)cc3)c(=O)oc12` [Compound 32, (S)-1,1-di-p-tolylpropan-2-yl-(S)-2-(8-methoxy-2,4-dioxo-2H-pyrido[2,3-e][1,3]oxazin-3(4H)-yl)propanoate], the pest or weed control at 121.5 g/ha in the data set on Puccinia triticina (setting [1]) is more than 80%; with Puccinia triticina (setting [2]), not above 80%; in the data set on Zymoseptoria tritici (setting [3]), more than 80%; in the data set with Zymoseptoria tritici (setting [4]), more than 80%. In addition, the pest or weed control at 25 ppm in the data set with Phakopsora pachyrhizi (setting [5]) and with Phakopsora pachyrhizi (setting [6]) was not above 80% in each case.
Consider `COc1ccnc2c(=O)n([C@@H](C)C(=O)O[C@@H](C)[C@@H](c3ccc(C)cc3)c3ccc(F)cc3C)c(=O)oc12` [Compound 33], for which the pest or weed control at 121.5 g/ha in the data set on Puccinia triticina (setting [1]) is more than 80%; with Puccinia triticina (setting [2]), not above 80%; in the data set with Zymoseptoria tritici (setting [3]), more than 80%; with Zymoseptoria tritici (setting [4]), more than 80%. The pest or weed control at 25 ppm in the data set with Phakopsora pachyrhizi (setting [5]) was more than 80%; in the data set with Phakopsora pachyrhizi (setting [6]), not above 80%.
